Reference: US10000471B2, “Pyrazole P38 map kinase inhibitors” (Respivert Limited, priority 2010, dated 2018)

Columns and labels:
[1] = target: T1, p38 MAPKα isoform (MAPK14) (Homo sapiens, UniProt Q16539); assay: Enzyme inhibition assay (FRET, Z-LYTE), p38 MAPKα via MAPKAP-K2 activation; type: biochemical; details: read-out: Enzyme Inhibition IC50 p38α
T1 construct: purchased Invitrogen
Protocol: (§1) The enzyme inhibitory activities of compounds disclosed herein were determined by fluorescence resonance energy transfer (FRET) using synthetic peptides labelled with both donor and acceptor fluorophores (Z-LYTE, Invitrogen Ltd., Paisley, UK). Recombinant, phosphorylated p38 MAPKγ (MAPK12:Invitrogen) was diluted in HEPES buffer, mixed with the test compound at the desired final concentrations and incubated for 2 hr at RT. The FRET peptide (2 μM) and ATP (100 μM) were added to the enzyme/compound mixture and incubated for 1 hr. Development reagent (protease) was added for 1 hr prior to detection in a fluorescence microplate reader (Varioskan® Flash, ThermoFisher Scientific). The site-specific protease cleaves non-phosphorylated peptide only and eliminates the FRET signal. Phosphorylation levels of each reaction were calculated using the ratio of coumarin emission (donor) over fluorescein emission (acceptor) for which high ratios indicate high phosphorylation and low ratios indicate low phosphorylation levels. The percentage inhibition of each reaction was calculated relative to non-inhibited control and the 50% inhibitory concentration (IC50 value) then calculated from the concentration-response curve.
For the p38 MAPKα isoform (MAPK14: Invitrogen), enzyme activity was evaluated indirectly by determining the level of activation/phosphorylation of the down-stream molecule, MAPKAP-K2. The p38 MAPKα protein was mixed with the test compound for 2 hr at RT. […] Development reagent was then added and the mixture incubated for 1 hr before detection by fluorescence completed the assay protocol.

[2] = tested on: ICAM-1 induction in BEAS2B cells; assay: Poly I:C-induced ICAM-1 induction in BEAS2B cells; type: cell-based, human; details: Homo sapiens, BEAS-2B, read-out: PolyIC/ICAM1 IC50 BEAS2B
Protocol: Poly I:C-Induced ICAM-1 Induction in BEAS2B Cells
Poly I:C (1 μg/mL) (Invivogene Ltd., San Diego, Calif.) was transfected into BEAS2B cells (human bronchial epithelial cells, ATCC) with Oligofectamine (Invitrogen, Carlsbad, Calif.). Cells were pre-incubated with final concentrations of test compounds for 2 hr and the level of ICAM1 expression on the cell surface was determined by cell-based ELISA. At a time point 18 hr after poly I:C transfection, cells were fixed with 4% formaldehyde in PBS and then endogenous peroxidase was quenched by the addition of 0.1% sodium azide and 1% hydrogen peroxide. Cells were washed with wash-buffer (0.1% Tween in PBS: PBS-Tween). and after blocking the wells with 5% milk in PBS-Tween for 1 hr, the cells were incubated with anti-human ICAM-1 antibody (Cell Signaling Technology, Danvers, Mass.) in 1% BSA PBS overnight at 4° C. The cells were washed with PBS-Tween and incubated with the secondary antibody (HRP-conjugated anti-rabbit IgG, Dako Ltd., Glostrup, Denmark). The ICAM-1 signal was detected by adding substrate and reading the absorbance at 450 nm against a reference wavelength of 655 nm using a spectrophotometer. The cells were then washed with PBS-Tween and total cell numbers in each well were determined by reading absorbance at 595 nm after Crystal Violet staining and elution by 1% SDS solution. The measured OD 450-655 readings were corrected for cell number by dividing with the OD595 reading in each well. The inhibition of ICAM-1 expression was calculated at each concentration of test compound by comparison with vehicle control. The 50% inhibitory concentration (IC50) was determined from the resultant concentration-response curve.

[3] = tested on: IL-8 release in d-U937 cells; assay: LPS-induced IL-8 release in d-U937 cells; type: cell-based, human; details: Homo sapiens, dU937
Protocol: (§2) LPS-Induced TNFα/IL-8 Release in d-U937 Cells
(§3) U937 cells, a human monocytic cell line, were differentiated to macrophage-type cells by incubation with phorbol myristate acetate (PMA; 100 ng/ml) for 48 to 72 hr. Cells were pre-incubated with final concentrations of test compound for 2 hr and were then stimulated with 0.1 μg/mL of LPS (from E. Coli: O111:B4, Sigma) for 4 hr. The supernatant was collected for determination of TNFα and IL-8 concentrations by sandwich ELISA (Duo-set, R&D systems). The inhibition of TNFα production was calculated as a percentage of that achieved by 10 μg/mL of BIRB796 at each concentration of test compound by comparison against vehicle control. The relative 50% effective concentration (REC50) was determined from the resultant concentration-response curve. The inhibition of IL-8 production was calculated at each concentration of test compound by comparison with vehicle control. The 50% inhibitory concentration (IC50) was determined from the resultant concentration-response curve.

[4] = tested on: TNFα release in d-U937 cells; assay: LPS-induced TNFα release in d-U937 cells; type: cell-based, human; details: Homo sapiens, dU937, relative to 10 μg/mL BIRB796, read-out: LPS/TNFα REC50 d-U937
Protocol: as §2, §3

[5] = tested on: Differentiated U937 cells; assay: Cell viability MTT assay; type: cell-based, human; details: negative = apparent increase in viability; for MTT Assay (Viability) 4 h d-U937, percentage loss of cell viability: 4 hr in 5% FCS; for MTT Assay (Viability) 24 h d-U937, percentage loss of cell viability: 24 h in 10% FCS
Protocol: Differentiated U937 cells were pre-incubated with each test compound under two protocols: the first for 4 hr in 5% FCS and the second in 10% FCS for 24 h. The supernatant was replaced with 200 μL of new media and 10 μL of MTT stock solution (5 mg/mL) was added to each well. After incubation for 1 hr the media were removed, 200 μL of DMSO was added to each well and the plates were shaken lightly for 1 hr prior to reading the absorbance at 550 nm. The percentage loss of cell viability was calculated for each well relative to vehicle (0.5% DMSO) treatment. Consequently an apparent increase in cell viability for drug treatment relative to vehicle is tabulated as a negative percentage.

[6] = tested on: TNFα release in THP-1 cells; assay: LPS-induced TNFα release in THP-1 cells; type: cell-based, human; details: Homo sapiens
Protocol: LPS-Induced TNFα Release in THP-1 Cells
THP-1 cells, a human monocytic cell line, were stimulated with 3 μg/mL of LPS (from E. Coli; 0111:B4, Sigma) for 4 hr and the supernatant collected for determination of the TNFα concentration by sandwich ELISA (Duo-set, R&D systems). The inhibition of TNFα production was calculated at each concentration by comparison with vehicle control. The 50% inhibitory concentration (IC50) was determined from the resultant concentration-response curve.

p38 MAPKγ (MAPK12) = target: T2, p38 MAPKγ (MAPK12) (Homo sapiens, UniProt P53778); assay: Enzyme inhibition assay (FRET, Z-LYTE), p38 MAPKγ; type: biochemical; details: read-out: Enzyme Inhibition IC50 p38γ
T2 construct: purchased Invitrogen
T2 sequence (P53778 1-367): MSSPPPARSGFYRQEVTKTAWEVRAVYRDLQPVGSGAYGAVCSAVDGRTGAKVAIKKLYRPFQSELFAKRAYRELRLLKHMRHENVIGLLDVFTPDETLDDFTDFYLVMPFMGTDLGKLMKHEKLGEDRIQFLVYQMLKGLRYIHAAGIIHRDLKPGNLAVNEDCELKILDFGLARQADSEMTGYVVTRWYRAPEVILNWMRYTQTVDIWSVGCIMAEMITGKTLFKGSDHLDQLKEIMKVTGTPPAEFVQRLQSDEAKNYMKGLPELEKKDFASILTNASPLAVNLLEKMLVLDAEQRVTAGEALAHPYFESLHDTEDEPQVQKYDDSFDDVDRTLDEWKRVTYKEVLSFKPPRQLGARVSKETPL
Protocol: as §1

T1 sequence (Q16539 whole entry, canonical isoform): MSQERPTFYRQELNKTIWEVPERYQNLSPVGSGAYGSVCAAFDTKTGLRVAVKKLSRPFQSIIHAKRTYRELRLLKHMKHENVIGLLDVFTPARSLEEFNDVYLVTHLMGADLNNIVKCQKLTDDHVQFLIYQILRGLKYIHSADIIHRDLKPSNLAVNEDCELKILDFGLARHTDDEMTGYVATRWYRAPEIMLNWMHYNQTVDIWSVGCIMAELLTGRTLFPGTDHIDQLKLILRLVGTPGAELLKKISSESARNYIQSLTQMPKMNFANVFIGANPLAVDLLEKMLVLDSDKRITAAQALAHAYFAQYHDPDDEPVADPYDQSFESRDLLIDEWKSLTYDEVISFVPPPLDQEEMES

Row | IC50 [1] | IC50 [3] | EC50 [4] | IC50 [6] | IC50 (p38 MAPKγ (MAPK12)) | SMILES | IC50 [2] | MTT Assay (Viability) 4 h d-U937, percentage loss of cell viability [5] | MTT Assay (Viability) 24 h d-U937, percentage loss of cell viability [5]
1 | 30.7 nM | 1060 nM | 69.5 nM | 45.2 nM | > 15300 nM | COc1ccc(-n2nc(C(C)(C)C)cc2NC(=O)Nc2ccc(OCc3ccnc(NC(=O)N4CCCC4)c3)c(Cl)c2Cl)cc1 [Example 20, N-(4-((4-(3-(3-tert-Butyl-1-(4-methoxyphenyl)-1H-pyrazol-5-yl)ureido)-2,3-dichlorophenoxy)methyl)pyridin-2-yl)pyrrolidine-1-carboxamide] | 16.5 nM | −19.1% | 9.6%
2 | 15.7 nM | 11.9 nM | 0.3 nM | 2.2 nM | 47.9 nM | COCC(=O)Nc1nccc(Oc2ccc(NC(=O)Nc3cc(C(C)(C)C)nn3-c3ccc(OC)cc3)c(Cl)c2Cl)n1 [Example 23, N-(4-(4-(3-(3-tert-Butyl-1-(4-methoxyphenyl)-1H-pyrazol-5-yl)ureido)-2,3-dichlorophenoxy)pyrimidin-2-yl)-2-methoxyacetamide] | 2 nM | −37.1% | −24.5%
3 | 29 nM | 266 nM | 171 nM | 97.2 nM | 2860 nM | COCC(=O)Nc1cc(CSc2ccc(NC(=O)Nc3cc(C(C)(C)C)nn3-c3ccc(OC)cc3)c(Cl)c2Cl)ccn1 [Example 26, N-(4-((4-(3-(3-tert-Butyl-1-(4-methoxyphenyl)-1H-pyrazol-5-yl)ureido)-2,3-dichlorophenylthio)methyl)pyridin-2-yl)-2-methoxyacetamide] | > 156 nM | 10.5% | −4.3%

The remaining lines, values behind:

Row | SMILES | IC50 [1] | IC50 [3] | EC50 [4] | IC50 [6] | IC50 (p38 MAPKγ (MAPK12)) | IC50 [2] | MTT Assay (Viability) 4 h d-U937, percentage loss of cell viability [5] | MTT Assay (Viability) 24 h d-U937, percentage loss of cell viability [5]
4 | CNC(=O)Nc1cc(COc2ccc(NC(=O)Nc3cc(C(C)(C)C)nn3-c3ccc(C)cc3)c3cccnc23)ccn1 [Example 21, 1-(3-tert-Butyl-1-p-tolyl-1H-pyrazol-5-yl)-3-(8-((2-(3-methylureido)pyridin-4-yl)methoxy)quinolin-5-yl)urea] | 81.5 nM | 12900 nM | 164 nM | 1770 nM | > 17300 nM | > 1730 nM | 14.5% | −12.0%
5 | CN(C)CCCC(=O)Nc1cc(Oc2ccc(NC(=O)Nc3cc(C(C)(C)C)nn3-c3ccc(CO)cc3)c(Cl)c2Cl)ncn1 [Example 22] | 7.6 nM | 33.8 nM | 1.5 nM | 1.1 nM | 20.6 nM | 4.9 nM | −20.9% | 85.2%
6 | CNC(=O)Nc1nccc(Oc2ccc(NC(=O)Nc3cc(C(C)(C)C)nn3-c3ccc(CO)cc3)c(Cl)c2Cl)n1 [Example 25, 1-(4-(4-(3-(3-tert-Butyl-1-(4-(hydroxymethyl)phenyl)-1H-pyrazol-5-yl)ureido)-2,3-dichlorophenoxy)pyrimidin-2-yl)-3-methylurea] | 10.7 nM | 2.5 nM | 1.2 nM | 1.7 nM | 139 nM | 10.8 nM | −3.5% | 58.6%
7 | COCC(=O)Nc1cc(Oc2ccc(NC(=O)Nc3cc(C(C)(C)C)nn3-c3ccc(C)cc3)c(Cl)c2)ccn1 [Example 27, N-(4-(4-(3-(3-tert-butyl-1-p-tolyl-1H-pyrazol-5-yl)ureido)-3-chlorophenoxy)pyridin-2-yl)-2-methoxyacetamide] | 18.8 nM | 3.3 nM | 0.5 nM | 0.6 nM | 111 nM | 6.3 nM | 7.2% | 54.9%
8 | COCC(=O)Nc1cc(Oc2ccc(NC(=O)Nc3cc(C(C)(C)C)nn3-c3ccc(C)cc3)cc2C#N)ccn1 [Example 28, N-(4-(4-(3-(3-tert-butyl-1-p-tolyl-1H-pyrazol-5-yl)ureido)-2-cyanophenoxy)pyridin-2-yl)-2-methoxyacetamide] | 48.3 nM | 7 nM | 2.7 nM | 3.2 nM | 30.1 nM | 11.6 nM | −3.8% | 71.0%
9 | COCC(=O)Nc1cc(Oc2ccc(NC(=O)Nc3cc(C(C)(C)C)nn3-c3ccc(C)cc3)cc2Cl)ccn1 [Example 29, N-(4-(4-(3-(3-tert-butyl-1-p-tolyl-1H-pyrazol-5-yl)ureido)-2-chlorophenoxy)pyridin-2-yl)-2-methoxyacetamide] | 46.1 nM | 17.9 nM | 0.8 nM | 2.2 nM | 46.1 nM | 77 nM | −0.7% | 30.8%
